Measurements reported in ChEMBL document CHEMBL5620426, “Discovery of 3-(1H-benzo[d]imidazole-2-yl)-1H-pyrazol-4 -amine derivatives as novel and potent syk inhibitors for the treatment of hematological malignancies” (Eur J Med Chem, 2023).

What was measured:
[1] = target: T1, Tyrosine-protein kinase SYK (Homo sapiens, UniProt P43405); experiment: Inhibition of Syk (unknown origin) preincubated for 20 mins followed by 33P-gamma-ATP measured after 120 mins by HotSpot assay
[2] = Cmax in fasted Sprague-Dawley rat at 10 mg/kg, po measured for 24 hrs by LC-MS/MS analysis; assay type: ADME, organism-based; settings: in vivo
[3] = Oral bioavailability in fasted Sprague-Dawley rat at 10 mg/kg measured for 24 hrs by LC-MS/MS analysis; assay type: ADME, organism-based; settings: in vivo
[4] = tested on: MV4-11; experiment: Antitumor activity against human MV4-11 cells xenografted in nude BALB/c mouse assessed as tumor growth inhibition at 1 mg/kg, iv qd for 21 days administered consecutively relative to control; assay type: functional; settings: MV4-11, 504 h, time 21 day, read-out: TGI
[5] = tested on: MV4-11; experiment: Inhibition of cell viability in human MV4-11 cells incubated for 72 hrs by Cell Titer Glo assay; assay type: functional, cell-based; settings: MV4-11, 72 h
[6] = Half life in fasted Sprague-Dawley rat at 10 mg/kg, po measured for 24 hrs by LC-MS/MS analysis; assay type: ADME, organism-based; settings: in vivo
[7] = Metabolic stability in human liver microsomes assessed as intrinsic clearance at […] incubated for 60 mins in presence of NADPH by LC-MS/MS analysis; assay type: ADME, Microsome; settings: read-out: CLH
[8] = C0 in fasted Sprague-Dawley rat at 1 mg/kg, iv measured for 24 hrs by LC-MS/MS analysis; assay type: ADME, organism-based; settings: in vivo
[9] = Clearance in fasted Sprague-Dawley rat at 1 mg/kg, iv measured for 24 hrs by LC-MS/MS analysis; assay type: ADME, organism-based; settings: in vivo
[10] = Metabolic stability in human liver microsomes assessed as half life at […] incubated for 60 mins in presence of NADPH by LC-MS/MS analysis; assay type: ADME, Microsome
[11] = tested on: SU-DHL-6; experiment: Antiproliferative activity against human SU-DHL-6 cells assessed as inhibition of cell viability incubated for 72 hrs by Cell Titer Glo assay; assay type: functional, cell-based; settings: SU-DHL-6, 72 h
[12] = Tmax in fasted Sprague-Dawley rat at 10 mg/kg, po measured for 24 hrs by LC-MS/MS analysis; assay type: ADME, organism-based; settings: in vivo
[13] = AUC in fasted Sprague-Dawley rat at 10 mg/kg, po measured for 24 hrs by LC-MS/MS analysis; assay type: ADME, organism-based; settings: in vivo
[14] = Volume of distribution at steady state in fasted Sprague-Dawley rat at 1 mg/kg, iv measured for 24 hrs by LC-MS/MS analysis; assay type: ADME, organism-based; settings: in vivo, read-out: Vdss
[15] = Half life in fasted Sprague-Dawley rat at 1 mg/kg, iv measured for 24 hrs by LC-MS/MS analysis; assay type: ADME, organism-based; settings: in vivo
[16] = target: T1, Tyrosine-protein kinase SYK; experiment: Inhibition of SYK phosphorylation in human Ramos cells incubated for 2 hrs by Western blot analysis; assay type: cell-based; settings: dose <= 500.0 nM
[17] = Toxicity in nude BALB/c mouse xenografted with human MV4-11 cells assessed as animal mortality at 1 mg/kg, iv qd for 21 days administered consecutively; assay type: organism-based; settings: in vivo, 504 h, time 21 day
[18] = tested on: Ramos; experiment: Inhibition of […] in serum-starved human Ramos cells incubated for 1 hr followed by anti-human IgM F(ab)2 measured after 5 mins; assay type: functional, cell-based
[19] = AUC in fasted Sprague-Dawley rat at 1 mg/kg, iv measured for 24 hrs by LC-MS/MS analysis; assay type: ADME, organism-based; settings: in vivo
[20] = tested on: Daudi; experiment: Antiproliferative activity against human Daudi cells assessed as inhibition of cell viability incubated for 72 hrs by Cell Titer Glo assay; assay type: functional, cell-based
[21] = tested on: TMD8; experiment: Antiproliferative activity against human TMD8 cells assessed as inhibition of cell viability incubated for 72 hrs by Cell Titer Glo assay; assay type: functional, cell-based; settings: TMD8, 72 h
[22] = Toxicity in nude BALB/c mouse xenografted with human MV4-11 cells assessed as body weight loss at 1 mg/kg, iv qd for 21 days administered consecutively; assay type: organism-based; settings: in vivo, 504 h, time 21 day
[23] = Toxicity in nude BALB/c mouse xenografted with human MV4-11 cells assessed as systemic cytotoxicity at 1 mg/kg, iv qd for 21 days administered consecutively; assay type: organism-based; settings: in vivo, 504 h, time 21 day
[24] = tested on: DOHH-2; experiment: Antiproliferative activity against human DOHH-2 cells assessed as inhibition of cell viability incubated for 72 hrs by Cell Titer Glo assay; assay type: functional, cell-based; settings: DOHH-2, 72 h
[25] = tested on: Rec1; experiment: Antiproliferative activity against human REC1 cells assessed as inhibition of cell viability incubated for 72 hrs by Cell Titer Glo assay; assay type: functional, cell-based; settings: Rec1, 72 h
[26] = target: T1, Tyrosine-protein kinase SYK; experiment: Inhibition of SYK in human Ramos cells assessed as decrease in PLC-gamma-2 phosphorylation incubated for 2 hrs by Western blot analysis; assay type: cell-based; settings: dose <= 500.0 nM

Question: Which IC50 [1] does the source give for CC(C)N1CCN(c2ccc3[nH]c(-c4n[nH]cc4Nc4ncnc5[nH]ccc45)nc3c2)CC1 here?
Answer: The IC50 was 0.52 nM.

Question: What about the Cmax [2] of the same compound?
Answer: The Cmax was 18.1 ng/mL.

Question: And the bioavailability [3]?
Answer: Its bioavailability is 1.5%.

Question: What about the inhibition in vivo at 1 mg/kg [4] of the same compound?
Answer: Its inhibition in vivo at 1 mg/kg is 99.3%.

Question: What about the IC50 [5] of the same compound?
Answer: Its IC50 is 1.5 nM.

Question: What about the half-life [6] of the same compound?
Answer: The half-life was 3.79 h.

Question: And the microsomal CLint [7]?
Answer: The microsomal CLint was 15.4 µL/min/mg.

Question: And the C0 at 24 h [8]?
Answer: Its C0 at 24 h is 1240 ng/mL.

Question: And the clearance [9]?
Answer: The clearance was 33.3 mL/min/kg.

Question: What about the half-life [10] of the same compound?
Answer: Its half-life is 1.88 h.

Question: What about the IC50 [11] of the same compound?
Answer: Its IC50 is 216 nM.

Question: And the Tmax [12]?
Answer: The Tmax was 0.833 h.

Question: And the AUC at 24 h [13]?
Answer: The AUC at 24 h was 78.8 ng·h/mL.

Question: And the Vd [14]?
Answer: The Vd was 8.93 L/kg.

Question: What about the half-life [15] of the same compound?
Answer: Its half-life is 6.4 h.

Question: What about the inhibition [16] of the same compound?
Answer: The inhibition was “Dose-Dependent Effect”.

Question: And the Activity [17]?
Answer: The Activity was “Non-Toxic”.

Question: And the IC50 [18]?
Answer: The IC50 was 18 nM.

Question: And the AUC at 24 h [19]?
Answer: The AUC at 24 h was 514 ng·h/mL.

Question: And the IC50 [20]?
Answer: The IC50 was 719 nM.

Question: And the IC50 [21]?
Answer: The IC50 was 10.9 nM.

Question: What about the Activity [22] of the same compound?
Answer: The Activity was “Non-Toxic”.

Question: What about the Activity [23] of the same compound?
Answer: The Activity was “Non-Toxic”.

Question: And the IC50 [24]?
Answer: The IC50 was 8.68 nM.

Question: What about the IC50 [25] of the same compound?
Answer: The IC50 was 34.3 nM.

Question: And the inhibition [26]?
Answer: Its inhibition is “Dose-Dependent Effect”.
